Experiments:
[1] = tested on: Cladosporium sp.; experiment: Antifungal MIC 50 / MIC 90 alone and combined with Tricide; type: cell-based; conditions: antifungal alone
[2] = tested on: Paecilomyces variotti ATCC 36257; experiment: as above; type: cell-based
[3] = tested on: Fusarium sp. 3; experiment: microbe, parasite or virus in culture; type: cell-based
[4] = tested on: Penicillium sp.; experiment: Antifungal MIC 50 / MIC 90 alone and combined with Tricide; type: cell-based
[5] = tested on: Fusarium sp. 2; experiment: microbe, parasite or virus in culture; type: cell-based
[6] = tested on: Candidia albicans ATCC 90028; experiment: Antifungal MIC 50 / MIC 90 alone and combined with Tricide; type: cell-based, Candida albicans;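 also: MIC 50 and MIC 90 values are means, and the percent decrease is the drop in MIC when the antifungal is combined with Tricide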
[7] = tested on: Fusarium sp. 1; experiment: microbe, parasite or virus in culture; type: cell-based;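 also: mean MIC 50 and MIC 90 values against fungal isolates, with percent decrease in MIC when the antifungal is combined with Tricide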
[8] = tested on: Curvularia sp.; experiment: Antifungal MIC 50 / MIC 90 alone and combined with Tricide; type: cell-based;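 also: antifungal MIC 50 and MIC 90 values against fungal isolates, with percent figures expressing how much the MIC fell once Tricide was added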
[9] = tested on: Aspergillus sp.; experiment: as above; type: cell-based; conditions: for % decrease MIC 50 / % decrease MIC 90 / MIC 50 combined with Tricide / MIC 90 combined with Tricide: Aspergillus sp.
[10] = Paecilomyces variotti ATCC36257
[11] = Paecilomyces variotti, Tricide […]
[12] = Candida albicans, ATCC90028, Candidia albicans ATCC 90028, antifungal alone
[13] = Fusarium sp. 1, Tricide 540 ug/ml
[14] = Fusarium sp. 1, antifungal alone
[15] = Curvilaria sp., Tricide 200 ug/ml
[16] = Curvularia sp., antifungal alone
[17] = Aspergillus, Aspergiullus sp., antifungal alone

C[C@@H]1C/C=C/C=C/C=C/C=C/[C@H](O[C@@H]2O[C@H](C)[C@@H](O)[C@H](N)[C@@H]2O)C[C@@H]2O[C@](O)(C[C@@H](O)C[C@H]3O[C@@H]3/C=C/C(=O)O1)C[C@H](O)[C@H]2C(=O)O [Natamycin, natamycin]
MIC50 [1]: > 19.2 mg/L
MIC90 [1]: > 19.2 mg/L
MIC50 ([2]; ATCC36257, Paecilomyces variotti ATCC 36257, antifungal alone, read-out: MIC 50): 2.4 to 4.8 mg/L
MIC90 ([2]; ATCC36257, Paecilomyces variotti ATCC 36257, antifungal alone, read-out: MIC 90): 9.6 mg/L
Summary % reduction in MIC 50 using Tricide [2, 10]: 75-87.5%^
Summary % reduction in MIC 90 using Tricide [2, 10]: 50%
% decrease MIC 50 [2, 11]: 75%-87.5%
% decrease MIC 90 [2, 11]: 50%
MIC 50 combined with Tricide [2, 11]: 0.6 mg/L
MIC 90 combined with Tricide [2, 11]: 4.8 mg/L
Summary % reduction in MIC 50 using Tricide [3]: 100%
Summary % reduction in MIC 90 using Tricide [3]: 100%
% decrease MIC 50 ([3]; Tricide 540 ug/ml): 100%
% decrease MIC 90 ([3]; Tricide 540 ug/ml): 100%
MIC 50 combined with Tricide ([3]; Tricide 540 ug/ml): 0 mg/L
MIC 90 combined with Tricide ([3]; Tricide 540 ug/ml): 0 mg/L
MIC50 ([3]; antifungal alone): > 19.2 mg/L
MIC90 ([3]; antifungal alone): > 19.2 mg/L
Summary % reduction in MIC 50 using Tricide [4]: 100%
Summary % reduction in MIC 90 using Tricide [4]: 100%
% decrease MIC 50 ([4]; Tricide 200 ug/ml): 100%
% decrease MIC 90 ([4]; Tricide 200 ug/ml): 100%
MIC 50 combined with Tricide ([4]; Tricide 200 ug/ml): 0 mg/L
MIC 90 combined with Tricide ([4]; Tricide 200 ug/ml): 0 mg/L
MIC50 ([4]; antifungal alone): 9.6 mg/L
MIC90 ([4]; antifungal alone): 19.2 mg/L
Summary % reduction in MIC 50 using Tricide [5]: 100%
Summary % reduction in MIC 90 using Tricide [5]: >99%-100%
% decrease MIC 50 ([5]; Tricide 540 ug/ml): 100%
% decrease MIC 90 ([5]; Tricide 540 ug/ml): >99-100% ^
MIC 50 combined with Tricide ([5]; Tricide 540 ug/ml): 0 mg/L
MIC 90 combined with Tricide ([5]; Tricide 540 ug/ml): 0 to 1.92 mg/L
MIC50 ([5]; antifungal alone): > 19.2 mg/L
MIC90 ([5]; antifungal alone): > 19.2 mg/L
MIC50 [6, 12]: > 14.4 mg/L
MIC90 [6, 12]: > 19.2 mg/L
% decrease MIC 50 ([6]; Candida albicans, Tricide […]): 99.3%
% decrease MIC 90 ([6]; Candida albicans, Tricide […]): 90%
MIC 50 combined with Tricide ([6]; Candida albicans, Tricide […]): ≦0.10 ug/ml
MIC 90 combined with Tricide ([6]; Candida albicans, Tricide […]): 4.92 mg/L
Summary % reduction in MIC 50 using Tricide ([6]; Candidia albicans ATCC 90028): 99.3%
Summary % reduction in MIC 90 using Tricide ([6]; Candidia albicans ATCC 90028): 90%
Summary % reduction in MIC 50 using Tricide ([7]; Fasarium sp. 1): 100%
Summary % reduction in MIC 90 using Tricide ([7]; Fasarium sp. 1): 100%
% decrease MIC 50 [7, 13]: 100%
% decrease MIC 90 [7, 13]: 100%
MIC 50 combined with Tricide [7, 13]: 0 mg/L
MIC 90 combined with Tricide [7, 13]: 0 mg/L
MIC50 [7, 14]: > 19.2 mg/L
MIC90 [7, 14]: > 19.2 mg/L
% decrease MIC 50 [8, 15]: 100%
% decrease MIC 90 [8, 15]: 100%
MIC 50 combined with Tricide [8, 15]: 0 mg/L
Summary % reduction in MIC 50 using Tricide ([8]; Curvularia sp.): 100%
Summary % reduction in MIC 90 using Tricide ([8]; Curvularia sp.): 100%
MIC50 [8, 16]: 9.6 mg/L
MIC90 [8, 16]: 19.2 mg/L
% decrease MIC 50 ([9]; Tricide 200 ug/ml): 93.8%
% decrease MIC 90 ([9]; Tricide 200 ug/ml): 0%
MIC 50 combined with Tricide ([9]; Tricide 200 ug/ml): 1.2 mg/L
MIC 90 combined with Tricide ([9]; Tricide 200 ug/ml): >19.2 mg/L
% decrease MIC 50 ([9]; Tricide 400 ug/ml): 100%
% decrease MIC 90 ([9]; Tricide 400 ug/ml): 100%
MIC 50 combined with Tricide ([9]; Tricide 400 ug/ml): 0 mg/L
MIC 90 combined with Tricide ([9]; Tricide 400 ug/ml): 0 mg/L
MIC50 [9, 17]: > 19.2 mg/L
MIC90 [9, 17]: 19.2 mg/L
Summary % reduction in MIC 50 using Tricide ([9]; Aspergiullus sp.): 100%
Summary % reduction in MIC 90 using Tricide ([9]; Aspergiullus sp.): 100%

From US20100298252A1, “METHODS AND COMPOSITIONS FOR OPHTHALMIC TREATMENT OF FUNGAL AND BACTERIAL INFECTIONS” (priority 2004, published 2010)
